Patent US20050164370A1 (priority 2003, published 2005)

Assays:
[1] = tested on: transformed cells TM182-CRE1-ADHIPT4; conditions: TM182-CRE1-ADHIPT4, DOHLU+Glu agar containing 10 μM trans-zeatin, 30° C. for 30 hours
Protocol: (§1) After incubation, the growth state of the transformed cells was observed and photographed by a digital camera.

[2] = tested on: transformed cells TM182-AHK2-ADHIPT5; conditions: TM182-AHK2-ADHIPT5, DOHLU+Glu agar containing 10 μM trans-zeatin, 30° C. for 30 hours
Protocol: as §1

cytokinin receptor AHK2 = molecular target: T1, cytokinin receptor AHK2 (Arabidopsis thaliana, UniProt Q9C5U2); conditions: TM182-AHK2, DOLU+Glu agar, 30° C. for 30 hours
T1 sequence (Q9C5U2 1-1176): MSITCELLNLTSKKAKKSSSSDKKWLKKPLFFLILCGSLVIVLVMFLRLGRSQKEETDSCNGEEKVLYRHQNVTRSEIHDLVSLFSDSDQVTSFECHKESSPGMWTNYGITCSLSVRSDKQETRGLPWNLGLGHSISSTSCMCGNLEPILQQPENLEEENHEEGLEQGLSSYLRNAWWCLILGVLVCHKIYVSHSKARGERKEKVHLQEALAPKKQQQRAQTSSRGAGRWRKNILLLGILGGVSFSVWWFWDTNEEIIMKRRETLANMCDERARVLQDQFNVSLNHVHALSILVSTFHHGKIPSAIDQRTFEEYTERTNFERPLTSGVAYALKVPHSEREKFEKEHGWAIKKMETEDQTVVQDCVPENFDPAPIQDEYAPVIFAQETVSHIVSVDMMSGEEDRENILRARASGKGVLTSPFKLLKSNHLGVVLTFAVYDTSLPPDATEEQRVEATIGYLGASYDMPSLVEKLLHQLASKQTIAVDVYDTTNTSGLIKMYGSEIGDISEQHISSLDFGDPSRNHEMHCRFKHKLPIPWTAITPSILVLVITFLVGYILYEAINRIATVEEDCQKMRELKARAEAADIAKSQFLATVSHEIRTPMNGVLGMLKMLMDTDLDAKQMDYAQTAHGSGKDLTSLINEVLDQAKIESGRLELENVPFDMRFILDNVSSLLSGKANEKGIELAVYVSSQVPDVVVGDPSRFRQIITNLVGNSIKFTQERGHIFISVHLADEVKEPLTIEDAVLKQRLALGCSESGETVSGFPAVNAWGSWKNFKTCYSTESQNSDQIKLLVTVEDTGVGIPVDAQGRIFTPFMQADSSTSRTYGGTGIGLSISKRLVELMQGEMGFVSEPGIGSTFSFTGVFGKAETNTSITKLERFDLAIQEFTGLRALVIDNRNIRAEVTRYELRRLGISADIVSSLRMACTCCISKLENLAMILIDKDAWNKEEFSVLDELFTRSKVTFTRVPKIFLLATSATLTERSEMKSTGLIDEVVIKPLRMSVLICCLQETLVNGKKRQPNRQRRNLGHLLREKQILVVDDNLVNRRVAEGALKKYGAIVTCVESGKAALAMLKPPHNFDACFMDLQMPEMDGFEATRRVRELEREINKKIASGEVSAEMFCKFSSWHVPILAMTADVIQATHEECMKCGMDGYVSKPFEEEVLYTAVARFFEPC
Protocol: (§2) A culture solution 10 μl (about 800 clones of yeast) of the transformed cells TM182-CRE1, TM182-AHK2, TM182-AHK2Δ and TM182-AHK3 produced by the example 12 was spotted on DOLU+Glu agar media containing 10 μM of trans-zeatin and cultured at 30° C. for 30 hours. After incubation, the growth state of the transformed cells was observed and photographed by a digital camera.
(§3) Culture solutions of the transformed cells TM182-CRE1, TM182-AHK2Δ and TM182-AHK2 produced by the reference example 1 were spotted on DOLU+Glu agar media containing cytokinin in a variety of concentrations (1 nM, 10 nM, 100 nM, 1 μM, 10 μM, 100 μM) and cultured at 30° C. for 30 hours. After incubation, the growth state of the transformed cells was observed and photographed by a digital camera.

cytokinin receptor CRE1 = cytokinin receptor CRE1 (Arabidopsis thaliana, UniProt Q9C5U0, S567G/T1018A); conditions: TM182-CRE1, DOLU+Glu agar, 30° C. for 30 hours
Protocol: as §2, §3

cytokinin receptor AHK2Δ = molecular target: T2, cytokinin receptor AHK2Δ (Arabidopsis thaliana, UniProt Q9C5U2); conditions: TM182-AHK2Δ, DOLU+Glu agar, 30° C. for 30 hours
T2 sequence (Q9C5U2 196-1176): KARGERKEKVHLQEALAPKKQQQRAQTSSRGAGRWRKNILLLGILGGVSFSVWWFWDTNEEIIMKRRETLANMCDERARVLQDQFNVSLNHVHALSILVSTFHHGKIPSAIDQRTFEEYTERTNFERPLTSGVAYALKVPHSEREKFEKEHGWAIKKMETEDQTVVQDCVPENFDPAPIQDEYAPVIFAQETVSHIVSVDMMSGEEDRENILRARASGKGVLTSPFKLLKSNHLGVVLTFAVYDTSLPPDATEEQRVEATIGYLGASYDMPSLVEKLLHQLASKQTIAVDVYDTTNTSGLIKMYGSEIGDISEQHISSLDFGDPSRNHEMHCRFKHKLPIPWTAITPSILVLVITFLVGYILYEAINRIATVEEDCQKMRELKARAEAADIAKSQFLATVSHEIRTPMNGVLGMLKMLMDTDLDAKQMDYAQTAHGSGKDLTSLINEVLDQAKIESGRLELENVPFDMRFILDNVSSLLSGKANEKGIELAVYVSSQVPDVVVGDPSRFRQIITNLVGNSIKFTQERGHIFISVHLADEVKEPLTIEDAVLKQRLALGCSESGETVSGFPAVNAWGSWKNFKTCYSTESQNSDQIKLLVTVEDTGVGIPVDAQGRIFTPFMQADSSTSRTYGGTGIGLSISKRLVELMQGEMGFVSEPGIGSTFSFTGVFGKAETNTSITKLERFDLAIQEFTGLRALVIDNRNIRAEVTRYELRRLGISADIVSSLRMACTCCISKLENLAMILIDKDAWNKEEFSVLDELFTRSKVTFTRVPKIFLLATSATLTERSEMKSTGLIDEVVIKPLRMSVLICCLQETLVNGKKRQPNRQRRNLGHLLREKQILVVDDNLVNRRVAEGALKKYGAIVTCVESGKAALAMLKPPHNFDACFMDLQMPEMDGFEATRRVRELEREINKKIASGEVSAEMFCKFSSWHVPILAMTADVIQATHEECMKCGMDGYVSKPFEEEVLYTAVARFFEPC
Protocol: as §2, §3

Chain of cytokinin receptor CRE1 (Q9C5U0 24-1080 S567G/T1018A): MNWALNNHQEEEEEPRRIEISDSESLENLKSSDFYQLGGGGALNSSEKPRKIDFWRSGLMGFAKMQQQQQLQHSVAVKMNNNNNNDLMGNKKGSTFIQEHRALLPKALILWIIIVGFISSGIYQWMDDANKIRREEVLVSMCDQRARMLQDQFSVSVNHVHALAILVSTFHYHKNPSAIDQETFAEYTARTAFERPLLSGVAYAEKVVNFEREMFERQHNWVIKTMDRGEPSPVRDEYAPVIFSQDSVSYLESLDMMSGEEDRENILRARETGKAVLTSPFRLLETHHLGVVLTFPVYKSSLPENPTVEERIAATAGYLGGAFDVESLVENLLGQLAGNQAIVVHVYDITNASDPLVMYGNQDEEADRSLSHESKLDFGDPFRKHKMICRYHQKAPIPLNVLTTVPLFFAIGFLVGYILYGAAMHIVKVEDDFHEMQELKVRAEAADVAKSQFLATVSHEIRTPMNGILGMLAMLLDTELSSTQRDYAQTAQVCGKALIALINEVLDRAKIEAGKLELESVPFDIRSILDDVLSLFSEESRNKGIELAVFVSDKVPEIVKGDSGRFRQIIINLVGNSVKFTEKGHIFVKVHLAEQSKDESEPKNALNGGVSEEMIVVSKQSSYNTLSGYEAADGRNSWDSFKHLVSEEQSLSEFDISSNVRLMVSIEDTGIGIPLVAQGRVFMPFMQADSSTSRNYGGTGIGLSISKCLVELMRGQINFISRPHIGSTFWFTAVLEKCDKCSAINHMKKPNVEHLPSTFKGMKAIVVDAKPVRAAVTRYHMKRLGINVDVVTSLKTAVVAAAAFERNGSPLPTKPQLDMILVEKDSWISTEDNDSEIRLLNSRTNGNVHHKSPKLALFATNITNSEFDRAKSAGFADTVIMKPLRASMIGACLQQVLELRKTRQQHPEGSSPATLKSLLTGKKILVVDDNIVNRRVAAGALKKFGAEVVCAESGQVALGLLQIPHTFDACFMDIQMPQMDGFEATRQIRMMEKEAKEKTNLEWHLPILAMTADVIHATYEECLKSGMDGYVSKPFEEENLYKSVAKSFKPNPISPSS

C/C(=C\CNc1ncnc2nc[nH]c12)CO [trans-zeatin]
growth state of the transformed cells [1]: observed to grow | growth state of the transformed cells [2]: observed to grow | lowest observed supply concentration in which the transformed cells could be grown (cytokinin receptor AHK2; 1 nM to 100 μM tested): 1 µM | growth state of the transformed cells as compared with media containing no trans-zeatin (cytokinin receptor AHK2; 10 μM): high growth | lowest observed supply concentration in which the transformed cells could be grown (cytokinin receptor CRE1; 1 nM to 100 μM tested): 10 µM | growth state of the transformed cells as compared with media containing no trans-zeatin (cytokinin receptor CRE1; 10 μM): high growth | lowest observed supply concentration in which the transformed cells could be grown (cytokinin receptor AHK2Δ; 1 nM to 100 μM tested): 100 nM | growth state of the transformed cells as compared with media containing no trans-zeatin (cytokinin receptor AHK2Δ; 10 μM): high growth
